Results published in patent US20130225597A1, “USE OF PHOSPHODIESTERASE INHIBITOR TO ENHANCE POST-SURGICAL ERECTION IN MEN UNDERGOING RADICAL PROSTATECTOMY” (University of Medicine and Dentistry of New Jersey, priority 2010, published 2013).
Where a name gives a salt, the structure may show the parent alone.

What was measured:
[1] = test system: PC12 neuronal cell; assay: Neuronal survival of hydrogen peroxide treated PC-12 cells; type: cell-based; settings: 1 mM H2O2 for 1 hour, 24 hours incubation, viable cells counted
Protocol: Neuronal Survival Experiments. For survival experiments, PC12 neuronal cell were seeded in 6-well plates at a density of 1×10^5 per well in Dulbecco's modified Eagle's medium (DMEM) supplemented with 1% fetal bovine serum (FBS) and 100 ng/ml nerve growth factor (NGF), herein after (“Media”), for 3 days. Media was changed every 3 days. Cells were treated in the presence or absence of 1 mM hydrogen peroxide (H2O2) for 1 hour in the presence or absence of either sildenafil Citrate, vardenafil, or tardalafil at 0.1-fold physiologic dose (0.5 μM, 0.3 μM and 0.4 μM, respectively), physiologic dose (5 μM, 3 μM and 4 μM, respectively) and 10-fold physiologic dose (50 μM, 30 μM and 40 μM, respectively). Treated cells were incubated for 24 hours at 37° C. Viable cells were detached and counted using an automated counter.

[2] = test system: spinal motor and non-motor neurons; settings: cited from earlier work
[3] = test system: post-radical prostatectomy erection dysfunction; assay: Clinical study: sildenafil citrate at the operative site in robot-assisted radical prostatectomy, potency recovery; type: in vivo, humans; settings: 147 men
Protocol: Clinical Studies. For effective study in humans, 147 men that underwent robot-assisted radical prostatectomy were treated with sildenafil citrate at the operative site. Potency was reported in 24.2%, 84.2% and 93.3% of the subjects at three, six, and twelve months post-operative, respectively.

COc1ccc(C2CNC(=O)C2)cc1OC1CCCC1 (centres unmarked) [rolipram]
protection against H2O2-induced cell death (neuronal viability) [1]: significant protection

CCCOc1ccccc1-c1nc2nn[nH]c2c(=O)[nH]1 [zaprinas]
protection against acute Reactive Oxygen Species-induced neurotoxicity [2]: protect

CCCc1nn(C)c2c(=O)[nH]c(-c3cc(S(=O)(=O)N4CCN(C)CC4)ccc3OCC)nc12 [sildenafil citrate]
Potency reported, % of subjects ([3]; six months post-operative): 84.2%
Potency reported, % of subjects ([3]; three months post-operative): 24.2%
Potency reported, % of subjects ([3]; twelve months post-operative): 93.3%
